Measurements as given in ChEMBL document CHEMBL1131998, “Synthesis and biological evaluation of 1,1-difluoro-2-(tetrahydro-3-furanyl)ethylphosphonic acids possessing a N9-purinylmethyl functional group at the ring. a new class of inhibitors for purine nucleoside phosphorylases” (Bioorg Med Chem Lett, 1999).

Key:
[1] = molecular target: T1, Purine nucleoside phosphorylase (Homo sapiens, UniProt P00491); experiment: (§1) Compound was evaluated for inhibition of PNP-catalyzed inosine phosphorylation in human erythrocyte
T1 sequence (P00491 whole entry): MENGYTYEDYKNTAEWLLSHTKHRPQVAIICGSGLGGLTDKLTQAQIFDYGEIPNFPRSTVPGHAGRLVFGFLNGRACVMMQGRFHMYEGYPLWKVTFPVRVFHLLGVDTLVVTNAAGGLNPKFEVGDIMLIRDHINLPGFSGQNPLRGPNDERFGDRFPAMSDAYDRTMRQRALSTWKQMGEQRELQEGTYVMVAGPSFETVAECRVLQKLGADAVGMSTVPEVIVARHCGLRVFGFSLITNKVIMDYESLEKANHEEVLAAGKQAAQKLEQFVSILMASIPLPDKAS

[2] = molecular target: T1, Purine nucleoside phosphorylase; experiment: as §1; format: functional

Structure (SMILES) | Ki [1] | IC50 [2]
Nc1nc2c(ncn2CCCCC(F)(F)P(=O)(O)O)c(=O)[nH]1 | 53 nM | 380 nM
O=c1[nH]cnc2c1ncn2CC[C@@H]1C[C@H]1C(F)(F)P(=O)(O)O | 8.8 nM | 340 nM
O=P(O)(O)C(F)(F)C[C@H]1COC[C@H]1Cn1cnc2c(O)ncnc21 | 15.2 nM | 88 nM
O=P(O)(O)C(F)(F)C[C@H]1COC[C@@H]1Cn1cnc2c(O)ncnc21 | – | 320 nM
Nc1nc2c(ncn2CC[C@@H]2C[C@H]2C(F)(F)P(=O)(O)O)c(=O)[nH]1 (racemic) | 28.2 nM | 330 nM
